From patent publication US5073571A, “Method of inhibiting virus” (priority 1989, dated 1991)

Columns and labels:
HIV-1 [1] = assay: HIV-1 replication in H9 cells, p24 antigen ELISA; type: cell-based, HIV-1 strain HXB2gptX (in human H9 cells); details: 20-40 μM range
Experimental: (§1) Media was changed every other day. The effect of these compounds on virus production was determined by measuring the reverse transcriptase (RT) activity in samples of the cell culture supernatants. […] Negative controls consisted of no additions or 0.1ethanol. The results of duplicate assays were averaged. Panel B -Concentration-dependent effects of 13-oxamyristic acid on HIV-1 replication as measured by RT activity (percent of untreated control) and the presence of p24 antigen (ng/ml determined by ELISA). Error bars indicate the S.E.M. of assays done in triplicate. […] Panel D - Toxicity of 13-oxamyristic acid determined by viable cell count (trypan blue exclusion), as well as by [^3 H]thymidine and [^3 H]leucine labeling (see under Materials and Methods, Example 16, below). The incorporation of these radiolabeled compounds was determined in the total cell population contained in a well after 10 days of treatment with the analog. […]
Assay for HIV-1 Replication. […] The titer of the virus stock was determined by serial dilution using syncytia formation and reverse transcriptase activity (see below) as a measure of infectivity in H9 cells. […]
Virus Assays. Virus was quantitated using supernatant solutions of cells harvested on day 8 (m.o.i.=0.01) or day 10 (m.o.i.=0.001) of treatment. […]

HIV-1 [2] = assay: Syncytia assay in HIV-1 infected H9 cells; type: cell-based, HIV-1 strain HXB2gptX (in human H9 cells); details: H9 cells
Experimental: (§2) Media was changed every other day. The effect of these compounds on virus production was determined by measuring the reverse transcriptase (RT) activity in samples of the cell culture supernatants. […] Negative controls consisted of no additions or 0.1ethanol. The results of duplicate assays were averaged. Panel B -Concentration-dependent effects of 13-oxamyristic acid on HIV-1 replication as measured by RT activity (percent of untreated control) and the presence of p24 antigen (ng/ml determined by ELISA). Error bars indicate the S.E.M. of assays done in triplicate. Panel C - The effect of 13-oxamyristic acid on syncytia formation using an arbitrary scale described under Materials and Methods, Example 16, below. Panel D - Toxicity of 13-oxamyristic acid determined by viable cell count (trypan blue exclusion), as well as by [^3 H]thymidine and [^3 H]leucine labeling (see under Materials and Methods, Example 16, below). The incorporation of these radiolabeled compounds was determined in the total cell population contained in a well after 10 days of treatment with the analog. Duplicate assays were performed and the results averaged.
Assay for HIV-1 Replication. The human T-lymphoid cell line, H9, was provided by R. D. Gallo (NIH) and maintained in RPMI-1640 medium supplemented with 10% fetal bovine serum, 100 IU/mL penicillin, 100 μg/mL streptomycin an 2 mM L-glutamine. […] The titer of the virus stock was determined by serial dilution using syncytia formation and reverse transcriptase activity (see below) as a measure of infectivity in H9 cells. […]
Syncytia Assay. The number of syncytia in each well was determined by microscopic examination on days 4-6 (infected, untreated control cultures), 8 and 10 (analog or decanoate treated cultures). The average number of multi-nucleated giant cells counted per 10 low-power fields (LPF =40 times magnification) was assigned to an arbitrary syncytia scale: 0=<1/LPF, 1+=1-4/LPF, 2+=5-7/LPF, 3+= 8-10/LPF, 4+=>10/LPF. By this criteria uninfected, control cells had zero synctia, and infected, untreated H9 cells were consistently scored as 4+.

H9 cells [3] = assay: Toxicity in HIV-1 infected H9 cells: viable cell count by trypan blue exclusion; type: cell-based, human
Experimental: as §2
Toxicity Studies. These analyses were conducted for both assay systems. Cell survival was determined by trypan-blue exclusion. The number of unstained cells/mL in the treated cultures was divided by the number of unstained cells/mL in the untreated control cultures and expressed as percent control. Protein synthesis was measured at the end of the treatment periods by metabolic labeling for 4 hrs with L-[4,5^3 H(N)]-leucine (2 μCi/mL media, specific activity =140 Ci/mmol). All cells contained in a given well of a 24 well plate were recovered by scraping, the protein precipitated by TCA (final concentration =10%) and the solution subsequently incubated at 100° C. for 5 min prior to passage over glass fiber filters (Whatman). In the case of the H-9 assay, treated or untreated cells were pulsed labeled at the conclusion of the 10 day incubation. […] DNA synthesis was assessed on day 10 of the H9 assay. […]

H9 cells [4] = assay: [3H]leucine and [3H]thymidine labeling (protein and DNA synthesis) in HIV-1 infected H9 cells; type: cell-based, human; details: day 10
Experimental: as §1
Toxicity Studies. […] Cell survival was determined by trypan-blue exclusion. The number of unstained cells/mL in the treated cultures was divided by the number of unstained cells/mL in the untreated control cultures and expressed as percent control. Protein synthesis was measured at the end of the treatment periods by metabolic labeling for 4 hrs with L-[4,5^3 H(N)]-leucine (2 μCi/mL media, specific activity =140 Ci/mmol). […]

uninfected H9 cells = assay: Metabolic labeling tests using uninfected H9 cells; type: cell-based, human; details: 0.1 to 100 μM
Experimental: Toxicity Studies. These analyses were conducted for both assay systems. Cell survival was determined by trypan-blue exclusion. The number of unstained cells/mL in the treated cultures was divided by the number of unstained cells/mL in the untreated control cultures and expressed as percent control. Protein synthesis was measured at the end of the treatment periods by metabolic labeling for 4 hrs with L-[4,5^3 H(N)]-leucine (2 μCi/mL media, specific activity =140 Ci/mmol). All cells contained in a given well of a 24 well plate were recovered by scraping, the protein precipitated by TCA (final concentration =10%) and the solution subsequently incubated at 100° C. for 5 min prior to passage over glass fiber filters (Whatman). In the case of the H-9 assay, treated or untreated cells were pulsed labeled at the conclusion of the 10 day incubation. For the MoMLV assay, labeling studies were performed on LZ1 virus producing cells at the conclusion of the 2 day treatment period. An additional control test was performed on NIH 3T3 cells that had never been exposed to virus but which had been incubated with media (± analog) for two days. DNA synthesis was assessed on day 10 of the H9 assay. Cells were labeled for 12 h with [5'-^3 H]thymidine (0.5 μCi/mL, specific activity =2 Ci/mmol). All the cells in a well were harvested by scraping, their nucleic acid precipitated with TCA (final concentration =10%), and then collected on glass fiber filters prior to counting.
The cellular toxicity of 13-oxamyristate was analyzed using three independent assays of cell viability. First, viable cell number was determined at the conclusion of the 10 day treatment period using trypan blue exclusion. The percentage of living cells in untreated, HIV-1 infected cultures was reduced by 50% compared to that of untreated, uninfected cells (FIG. 1D). This reflects the cytopathic effects encountered with this strain of HIV-1 [Ratner et al., Nature 313, 277-284 (1985)]. […] To further investigate this hypothesis, the effects of increasing concentrations of the analog on DNA and protein synthesis were determined.

Question: `COCCCCCCCCCCCC(=O)O` [13-oxamyristate, 12-(Methoxy)dodecanoic acid] was tested. Which “reduction in virus replication (p24 ELISA)” value (HIV-1 [1]) did it give?
Answer: greater than 90%

Question: What about the “reduction in syncytia compared with AZT” value (HIV-1 [2]; 40-80 μM vs 5 μM AZT) of the same molecule?
Answer: comparable to that obtained with 5 μM AZT

Question: And the “syncytia reduction compared with RT and p24 assays” value (HIV-1 [2]; FIG. 1C)?
Answer: paralleled the results of the reverse transcriptase and p24 ELISA assays

Question: What about the “viable cell count in HIV-1 infected H9 cultures relative to untreated controls” value (H9 cells [3]; 20 to 40 μM, 10 day treatment) of the same molecule?
Answer: equivalent to that of untreated controls

Question: What about the “viable cell count in HIV-1 infected H9 cultures” value (H9 cells [3]; 10 day treatment, trypan blue exclusion) of the same molecule?
Answer: an increase in viable cell count was observed

Question: What about the “direct toxicity to the cells” value (H9 cells [3]; HIV-1 infected H9 cells, suggested by viable cell number) of the same molecule?
Answer: not directly toxic to the cells

Question: What about the “[3H]leucine labeling” value (H9 cells [4]) of the same molecule?
Answer: correlated with the cell survival data

Question: What about the “[3H]thymidine labeling” value (H9 cells [4]) of the same molecule?
Answer: correlated with the cell survival data

Question: What about the DNA synthetic rates (uninfected H9 cells) of the same molecule?
Answer: no significant effects

Question: What about the growth rates (uninfected H9 cells) of the same molecule?
Answer: no significant effects

Question: What about the protein synthetic rates (uninfected H9 cells) of the same molecule?
Answer: no significant effects
